Activity calls are given as the source filed them. For most assays here, no stated cut-off is given here; in the data, actives have a measured EC50 and inactives only a lower limit.

Assay [1] in a line: viability of uninfected HEp-2 cells – cell-based, HTS, cytotoxicity control for RSV inhibitor project, dose response (AID 2410). The assay is classed as functional. The settings on record: human respiratory syncytial virus.
The target in assay [2] is Luciferin 4-monooxygenase (Photinus pyralis, UniProt P08659). Put plainly: inhibition of purified Photinus pyralis luciferase – biochemical, luminescence, dose response (AID 1891).
Assay [3] is described as follows: Luminescence Cell-Based Dose Confirmation HTS to Identify Inhibitors of Platelet Dense Granule Release. [Related pubchem assays: 1663 (Primary HTS), 1678 (Summary of Project)]. In kind it is functional.
Assay [4] is described as follows: Luminescence Cell-Based Dose Response HTS to Identify Inhibitors of 5'UTR Stem-Loop Driven Prion Protein mRNA Translation in H4 Neuroglioblastoma Cells. [Related pubchem assays: 1827 (Project Summary), 1813 (Primary HTS)]. The assay is classed as functional.
The nature of assay [5]: luciferase reporter signal suppression in cells – H4 neuroglioma cells, luminescence, dose response (AID 1990). In kind it is functional, cell-based.
A short description of assay [6]: alpha-synuclein stem-loop luciferase translation blockers – H4 neuroglioma cells, luminescence, confirmation (AID 1988). In kind it is functional, cell-based.
The target of a further assay is T1, Streptokinase A (Streptococcus pyogenes serotype M1, UniProt P10520).
T1 sequence (P10520 whole entry): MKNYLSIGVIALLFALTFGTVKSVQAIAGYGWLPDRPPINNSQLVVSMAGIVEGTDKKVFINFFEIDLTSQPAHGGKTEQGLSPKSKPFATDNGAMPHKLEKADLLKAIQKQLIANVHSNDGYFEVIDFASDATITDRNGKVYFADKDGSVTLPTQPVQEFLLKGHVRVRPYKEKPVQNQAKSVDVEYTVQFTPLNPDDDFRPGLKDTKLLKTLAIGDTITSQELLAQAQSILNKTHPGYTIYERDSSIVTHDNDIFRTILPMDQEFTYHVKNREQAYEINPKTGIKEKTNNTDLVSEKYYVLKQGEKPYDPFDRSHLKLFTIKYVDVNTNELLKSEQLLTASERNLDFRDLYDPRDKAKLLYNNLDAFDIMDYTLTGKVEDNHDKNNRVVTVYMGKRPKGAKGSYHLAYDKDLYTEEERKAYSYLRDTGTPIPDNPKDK
The assay can be described thus: viability-normalized secreted streptokinase activity reduction – plasminogen activation absorbance, OD405, dose response (AID 1914).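 Further: secreted streptokinase activity via plasminogen activation per viability signal from cell pellet.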 The assay is classed as functional, Streptococcus pyogenes M1 GAS.

The subject of a further assay is Streptococcus. The assay can be described thus: GAS UMAA2166 growth inhibition – luminescence, BacTiterGlo, counter-screen for streptokinase expression inhibitor project, dose response (AID 1915).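 Further: potency for reduction of bacterial viability or growth.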 In kind it is functional, organism-based. On the technique in general: Counterscreens check selectivity or assay interference.
Assay [7] relates to Streptococcus sp. 'group A'. Put plainly: Streptococcus pyogenes SK(-)GAS viability under kanamycin – luminescence, BacTiterGlo, confirmation, counter-screen for streptokinase expression inhibitor project, dose response (AID 1900). The assay is classed as functional, organism-based.
In the next assay the target is Cytochrome P450 3A4 (Homo sapiens, UniProt P08684).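 Further: CYP3A4 tested as one member of a cytochrome P450 panel screen.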
Another assay concerns the target Cytochrome P450 2C9 (Homo sapiens, UniProt P11712).
Assay [8] in a line: Luminescence Cell-Based Dose Retest to Confirm Inhibitors of Cancer Stem Cells. [Related pubchem assays (depositor defined):AID2717, AID2721]. The assay is classed as functional. The settings on record: Homo sapiens.
Assay [9] is described as follows: NIH3T3 cell viability loss – ATP luminescence, mouse fibroblasts, counter-screen, dose response (AID 2010).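 Further: cells exposed to compound for about 90 hours before reading.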 In kind it is functional, cell-based.
Assay [10] in a line: Trypanosoma cruzi growth suppression in host cells – NIH3T3 host cells, beta-gal luminescence, confirmation (AID 2044).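 Further: intracellular parasites grown in NIH/3T3 mouse fibroblasts as host cells; luminescent beta-galactosidase reporter signal from transgenic T. cruzi replicating inside host cells; inhibitors lower the luminescence signal.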 The assay is classed as functional, cell-based.

Sequence of Cytochrome P450 2C9 (P11712 whole entry): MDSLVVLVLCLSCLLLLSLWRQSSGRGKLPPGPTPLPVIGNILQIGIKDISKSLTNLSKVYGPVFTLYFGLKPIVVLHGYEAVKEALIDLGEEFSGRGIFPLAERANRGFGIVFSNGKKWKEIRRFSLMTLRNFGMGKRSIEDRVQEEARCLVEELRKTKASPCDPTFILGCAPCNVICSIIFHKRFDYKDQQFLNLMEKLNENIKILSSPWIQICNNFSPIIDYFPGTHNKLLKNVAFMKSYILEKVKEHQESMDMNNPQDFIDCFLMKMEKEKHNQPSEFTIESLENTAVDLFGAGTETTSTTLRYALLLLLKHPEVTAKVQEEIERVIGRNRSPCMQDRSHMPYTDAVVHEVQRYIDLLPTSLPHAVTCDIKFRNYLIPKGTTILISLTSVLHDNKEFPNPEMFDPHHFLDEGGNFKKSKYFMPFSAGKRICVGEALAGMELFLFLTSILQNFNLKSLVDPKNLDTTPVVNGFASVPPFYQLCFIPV
Sequence of Luciferin 4-monooxygenase (P08659 whole entry): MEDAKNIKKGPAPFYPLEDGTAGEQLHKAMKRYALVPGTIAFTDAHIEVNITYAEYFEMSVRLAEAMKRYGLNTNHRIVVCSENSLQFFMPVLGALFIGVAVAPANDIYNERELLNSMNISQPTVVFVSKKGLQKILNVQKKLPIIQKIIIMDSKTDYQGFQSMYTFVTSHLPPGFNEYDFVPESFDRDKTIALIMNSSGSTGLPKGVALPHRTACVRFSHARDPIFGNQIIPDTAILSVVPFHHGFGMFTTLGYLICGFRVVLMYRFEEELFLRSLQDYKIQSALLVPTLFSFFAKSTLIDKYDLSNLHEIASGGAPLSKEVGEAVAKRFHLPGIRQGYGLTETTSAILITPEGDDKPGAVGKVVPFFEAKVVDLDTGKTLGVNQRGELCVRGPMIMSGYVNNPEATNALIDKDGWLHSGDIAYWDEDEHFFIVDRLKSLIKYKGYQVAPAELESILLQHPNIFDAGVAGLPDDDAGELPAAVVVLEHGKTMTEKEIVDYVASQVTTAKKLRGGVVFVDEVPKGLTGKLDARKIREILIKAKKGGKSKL
Sequence of Cytochrome P450 3A4 (P08684 whole entry): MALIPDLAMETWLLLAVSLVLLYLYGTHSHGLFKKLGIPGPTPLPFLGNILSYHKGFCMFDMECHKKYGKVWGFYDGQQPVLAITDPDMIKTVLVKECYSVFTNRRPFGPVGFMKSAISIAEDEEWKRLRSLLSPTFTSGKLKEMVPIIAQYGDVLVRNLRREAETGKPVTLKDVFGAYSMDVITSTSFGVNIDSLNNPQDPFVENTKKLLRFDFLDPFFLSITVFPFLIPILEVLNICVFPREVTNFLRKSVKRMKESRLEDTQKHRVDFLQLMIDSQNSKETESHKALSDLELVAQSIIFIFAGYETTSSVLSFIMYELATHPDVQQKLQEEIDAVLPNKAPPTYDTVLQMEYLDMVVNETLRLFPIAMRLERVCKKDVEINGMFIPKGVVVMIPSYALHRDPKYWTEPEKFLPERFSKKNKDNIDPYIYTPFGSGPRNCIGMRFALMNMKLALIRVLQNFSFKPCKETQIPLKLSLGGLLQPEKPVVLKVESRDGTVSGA

One may read the CC50 as the concentration at which the toxic effect on the cells reaches its halfway point. `O=[N+]([O-])c1ccc(S(=O)(=O)Nc2cccc(-c3ccc(N4CCCC4)nn3)c2)cc1`: the CC50 in [1] is 24.5 µM (active).
As usually defined, the EC50 is the concentration needed to bring the measured effect to its halfway point. Consider `Cc1cc(=O)n2nc(N3CCCC(C(=O)NCc4ccccc4)C3)sc2n1` (stereo not drawn), for which the 50% effective concentration (EC50) in assay [2] and in assay [3] was > 112 µM (not active) throughout.
In the case of `O=C(c1cc2ccccc2o1)N(Cc1nnc(-c2ccccc2Cl)o1)C1CC1`, the CC50 in assay [1] was 25.9 µM (active).
Regarding `CCOC(=O)C1CCN(C(=O)c2oc3ccc(S(=O)(=O)N4CCCCCC4)cc3c2C)CC1`, the CC50 in assay [1] was 17.7 µM (active).
Turning to `O=C(COc1cccc(OC(F)F)c1)Nc1ccc(SC(F)F)cc1`, the concentration for a half-maximal effect (EC50) in assay [2] and in [3] was > 112 µM (not active) in each case.
For `CCOc1ccc(S(=O)(=O)N2CCC(C(=O)NCc3cccnc3)CC2)cc1Cl`, the EC50 in [4] was > 120 µM (not active); in [5] it was 17.7 µM (active); in assay [6] it was > 120 µM (not active).
Take `Cc1ccc(S(=O)(=O)NCc2ccc(C(=O)NC3CC3)cc2)cc1`: the 50% effective concentration (EC50) is > 112 µM (not active) in [2] and 28.1 µM (active) in assay [3].
The corresponding values for `COc1ccc(C(=O)NCCOc2cccc(OC)c2)cc1` are > 112 µM (not active) and > 112 µM (not active).
The corresponding values for `COC(=O)c1[nH]c2cc(OC)ccc2c1NC(=O)CN1CCOCC1` are > 112 µM (not active) and > 112 µM (not active).
On to `O=C(CN(C(=O)Cn1nnc(-c2ccccc2F)n1)c1cccc2c1CCCC2)NCc1ccccc1`, for which the figures for the EC50 (at Streptokinase A; in the assay with Streptococcus; in assay [7]) were > 150 µM (not active), > 150 µM (not active) and 11.2 µM (active), respectively.
For orientation: AC50 means the midpoint of the concentration-response curve, whichever way the signal moves. Turning to `O=c1cc(O)cc(/C=C\c2ccc(O)c(O)c2)o1`, the AC50 was 3.16 µM (inconclusive) at Cytochrome P450 3A4 and 25.1 µM (inconclusive) at Cytochrome P450 2C9.
With `Cc1nc2ccccc2c(=O)n1NC(=O)C1CCC(C(C)(C)C)CC1` (stereo not drawn), the 50% effective concentration (EC50) in assay [4], in [5] and in [6] was > 120 µM (not active) each time.
Consider `CCC(C)Nc1nc(N)c([N+](=O)[O-])c(Nc2ccccc2OC)n1` (stereo not drawn), for which the figures for the 50% effective concentration (EC50) in assay [4], in assay [5] and in assay [6] were > 120 µM (not active), 13.5 µM (active) and > 120 µM (not active), respectively.
For the molecule `COc1cc(C)ccc1OCCCOc1ccccc1Cl`, the concentration at half-maximal activity (AC50) was 17.8 µM (inconclusive) at Cytochrome P450 3A4 and 12.6 µM (inconclusive) at Cytochrome P450 2C9.
Regarding `Clc1ccccc1Cn1c(/C=C/c2ccco2)nc2ccccc21`, in [8], the AC50 was 2.86 µM (active).
As to `CCC(C)(C)c1ccc(Oc2cccc(C(=O)O)c2)cc1`, the AC50 on Cytochrome P450 2C9 is 5.01 µM (inconclusive).
In the case of `COc1cc2c(cc1OC)C(C(=O)Nc1ccc3c(c1)OCCO3)C(c1cccnc1)N(C)C2=O` (stereo not drawn), the AC50 on Cytochrome P450 2C9 is 11.2 µM (inconclusive).
For the molecule `Cn1cc(S(=O)(=O)N2CCCC2)cc1C(=O)NCCc1ccccc1`, the EC50 in assay [2] and in assay [3] was > 112 µM (not active) in each case.
As for `O=C(Nc1ccccc1N1CCCC1)C1CCN(S(=O)(=O)c2ccccc2C(F)(F)F)CC1`, the CC50 in assay [1] is > 50 µM (active).
Take `CCOC(=O)Cn1c(=O)oc2cc(S(=O)(=O)NCCc3ccc(OCC)c(OCC)c3)ccc21`: the AC50 on Cytochrome P450 2C9 is 0.00562 µM (inconclusive).
On to `O=C(c1cc(-c2ccc(Br)cc2)nc2ccccc12)N1CCN(c2ccccc2O)CC1`, for which the EC50 on Streptokinase A is 29.2 µM (active); in the assay on Streptococcus, 25.4 µM (inconclusive); in assay [7], 7.53 µM (active).
`COCCn1c(=O)c(C)nc2cnc(Nc3cccc(OC)c3)nc21`: at Cytochrome P450 2C9, the half-maximal activity concentration (AC50) is 39.8 µM (inconclusive).
With `Brc1cccc(OCCN2CCc3ccccc3C2)c1`, the AC50 in [8] was 24.9 µM (active).
`CN1CCN(C(=O)CCN2C(=O)/C(=C/c3cccc(Br)c3)SC2=S)CC1`: in [1], the CC50 was 18.8 µM (active).
On to `CCOC(=O)C(=O)NNc1ccc(Cl)cc1`, for which the concentration at half-maximal activity (AC50) in assay [8] was 0.79 µM (active).
As for `COc1ccc(OC)c(-n2c(SCC(N)=O)nnc2-c2c[nH]c3ccccc23)c1`, the EC50 in assay [2] and in [3] was > 112 µM (not active) each time.
For `COc1ccc2cc1Oc1ccc(cc1)CC1c3c(cc(OC)c4c3Oc3cc5c(cc3O4)CCNC5C2)CCN1C` (stereo not drawn), the EC50 in assay [4] is 8.28 µM (active); in assay [5], > 120 µM (not active); in assay [9], 6.68 µM (active); in assay [6], 8.03 µM (active); in [10], 193 nM (active).
With `CN1/C(=C\C(=O)Nc2ccc(Cl)cc2)C(C)(C)c2ccccc21`, the half-maximal effective concentration (EC50) is > 150 µM (not active) at Streptokinase A, 11.5 µM (active) in the assay with Streptococcus and 9.32 µM (active) in [7].
Consider `COc1ccc(OCCCC(=O)OC(C)C(=O)Nc2ccc(NC(C)=O)cc2)cc1` (stereo not drawn), for which the concentration for a half-maximal effect (EC50) in [2] and in [3] was > 112 µM (not active) throughout.
Take `CCOC(=O)c1ccc(NC2c3ccccc3C(=O)N2c2cccnc2)cc1` (stereo not drawn): the EC50 was > 120 µM (not active) in assay [4], 20 µM (active) in assay [5] and 9.83 µM (active) in assay [6].
Take `CCc1c(C)nc2cc(-c3ccc(OC)c(OC)c3)nn2c1N1CCC(C)CC1`: the EC50 at Streptokinase A is 16.6 µM (active); in the assay on Streptococcus, 14.7 µM (active); in assay [7], 5.05 µM (active).
With `O=C(CN1CCN(c2cccc(C(F)(F)F)c2)CC1)Nc1cccc(C(F)(F)F)c1`, in [1], the cytotoxic concentration (CC50) is > 50 µM (active).
As to `COc1ccc(C(=O)C2CCCN(Cc3cc(C)c(O)c(C)c3)C2)c(OC)c1` (stereo not drawn), in [8], the concentration at half-maximal activity (AC50) is 0.502 µM (active).
Turning to `CC1=C(C(=O)OC2CCCCC2)C(c2ccc(C)o2)C2=C(O)CC(C)(C)CC2=N1` (stereo not drawn), the concentration at half-maximal activity (AC50) in assay [8] was 1.38 µM (active).
`COc1ccc(C(=O)OCCOc2cccc(Cl)c2)cc1S(=O)(=O)N1CCOCC1`: the EC50 in assay [2] and in assay [3] was > 112 µM (not active) in each case.
For `CCc1ccc(C(=O)Nc2cccc(-c3nn[nH]n3)c2)s1`, the EC50 in [2] was 3.49 µM (active); in [3], > 112 µM (not active).
Take `CCCc1cc(C(=O)N2CCCC(N3CCN(c4ccccc4F)CC3)C2)n(C)n1` (stereo not drawn): the EC50 was > 112 µM (not active) in assay [2] and 21.6 µM (active) in assay [3].
Consider `Cc1noc(C)c1CSc1nc2ccccc2nc1NS(=O)(=O)c1ccc(Cl)cc1`, for which the values for the EC50 (on Streptokinase A; with Streptococcus; in [7]) were 5.51 µM (active), 13.7 µM (active) and 6.49 µM (active), respectively. Also, the AC50 in [8] is 3.64 µM (active).
As to `COc1ccc(NS(=O)(=O)c2cc(NC(=O)c3ccc(O)nc3)ccc2N2CCCC2)cc1`, in [8], the AC50 was 0.952 µM (active).
Still for that read-out and setting: as for `CCC/C(=C1/c2ccccc2C(=O)N1c1ccccc1)c1ccc2c(c1)OCCO2`, the figure is 3.85 µM (active).
In the case of `COC(=O)C(NS(=O)(=O)c1ccc(NC(C)=O)cc1)C(C)C` (stereo not drawn), the half-maximal activity concentration (AC50) on Cytochrome P450 2C9 is 1.58 µM (inconclusive).
As for `CCc1ccc(-c2cc(C(=O)N/N=C/c3c[nH]c4ccccc34)[nH]n2)cc1`, the EC50 on Streptokinase A was > 150 µM (not active); in the assay on Streptococcus, 6.73 µM (active); in assay [7], 7.37 µM (active). Moreover, the AC50 in [8] was 2.97 µM (active).
`CC(/C=N/NC(=O)c1nnn(-c2nonc2N)c1C(C)C)=C\c1ccccc1`: the CC50 in assay [1] is 39.5 µM (active).
On to `O=C(N/N=C/c1ccc[nH]1)c1sc2ccccc2c1Cl`, for which the half-maximal activity concentration (AC50) in [8] was 1.94 µM (active). The figures for the concentration for a half-maximal effect (EC50) in assay [9] and in assay [10] were > 30 µM (not active) and 2300 nM (active), respectively.
Regarding `C/C(=N\NC(=O)C1CC1)c1ccc(C(C)(C)C)cc1`, the 50% cytotoxic concentration (CC50) in assay [1] is 34.3 µM (active).
As for `COc1ccc(/C=N\NC(=O)c2ccc(F)cc2)cc1COc1ccccc1C(N)=O`, the 50% effective concentration (EC50) in assay [2] and in [3] was > 112 µM (not active) each time.

Source of the values: ChEMBL document CHEMBL1201862, “PubChem BioAssay data set” (2004).
